From US20180370927A1, “MICROBIOCIDAL OXADIAZOLE DERIVATIVES” (SYNGENTA PARTICIPATIONS AG, priority 2015, published 2018)

Key:
[1] = test system: Puccinia recondita f. Sp. Tritici; assay: Puccinia recondita f. sp. tritici / wheat / leaf disc preventative (brown rust); type: in vivo; conditions: foliar, 200 ppm in the applied formulation, wheat leaf segments, preventative, assessed 7 to 9 days after application, read-out: disease control compared to untreated control leaf disks
Method: (§1) Leaf disks or leaf segments of various plant species are cut from plants grown in a greenhouse. The cut leaf disks or segments are placed in multiwell plates (24-well format) onto water agar. The leaf disks are sprayed with a test solution before (preventative) or after (curative) inoculation. Compounds to be tested are prepared as DMSO solutions (max. 10 mg/mL) which are diluted to the appropriate concentration with 0.025% Tween20 just before spraying. The inoculated leaf disks or segments are incubated under defined conditions (temperature, relative humidity, light, etc.) according to the respective test system. A single evaluation of disease level is carried out 3 to 14 days after inoculation, depending on the pathosystem. Percent disease control relative to the untreated check leaf disks or segments is then calculated.
Example 1: Fungicidal Activity Against Puccinia recondita f. Sp. Tritici/Wheat/Leaf Disc Preventative (Brown Rust)
Wheat leaf segments cv. Kanzler were placed on agar in multiwell plates (24-well format) and sprayed with the formulated test compound diluted in water. The leaf disks were inoculated with a spore suspension of the fungus 1 day after application. The inoculated leaf segments were incubated at 19° C. and 75% relative humidity (rh) under a light regime of 12 hours light/12 hours darkness in a climate cabinet and the activity of a compound was assessed as percent disease control compared to untreated when an appropriate level of disease damage appears in untreated check leaf segments (7 to 9 days after application).
(§2) The following compounds at 200 ppm in the applied formulation give at least 80% disease control in this test when compared to untreated control leaf disks under the same conditions, which show extensive disease development.

[2] = test system: Puccinia recondita f. Sp. Tritici; assay: Puccinia recondita f. sp. tritici / wheat / leaf disc curative (brown rust); type: in vivo; conditions: foliar, 200 ppm in the applied formulation, wheat leaf segments, curative (applied 1 day after inoculation), assessed 6 to 8 days after application, read-out: disease control compared to untreated control leaf disks
Method: as §1
Example 2: Fungicidal Activity Against Puccinia recondita f. Sp. Tritici/Wheat/Leaf Disc Curative (Brown Rust)
Wheat leaf segments cv. Kanzler are placed on agar in multiwell plates (24-well format). The leaf segments are then inoculated with a spore suspension of the fungus. Plates were stored in darkness at 19° C. and 75% relative humidity. The formulated test compound diluted in water was applied 1 day after inoculation. The leaf segments were incubated at 19° C. and 75% relative humidity under a light regime of 12 hours light/12 hours darkness in a climate cabinet and the activity of a compound was assessed as percent disease control compared to untreated when an appropriate level of disease damage appears in untreated check leaf segments (6 to 8 days after application).
as §2

[3] = test system: Glomerella lacenarium (Colletotrichum lacenarium); assay: Glomerella lacenarium (Colletotrichum lacenarium) liquid culture / cucumber / preventative (anthracnose); type: cell-based; conditions: 20 ppm in the applied formulation, liquid culture in PDB, 24° C., 3 to 4 days after application, read-out: disease control (inhibition of growth, photometric) compared to untreated control
Method: Mycelia fragments or conidia suspensions of a fungus prepared either freshly from liquid cultures of the fungus or from cryogenic storage, are directly mixed into nutrient broth. DMSO solutions of the test compound (max. 10 mg/ml) are diluted with 0.025% Tween20 by a factor of 50 and 10 μL of this solution is pipetted into a microtiter plate (96-well format). The nutrient broth containing the fungal spores/mycelia fragments is then added to give an end concentration of the tested compound. The test plates are incubated in the dark at 24° C. and 96% relative humidity. The inhibition of fungal growth is determined photometrically after 2 to 7 days, depending on the pathosystem, and percent antifungal activity relative to the untreated check is calculated.
Example 4: Fungicidal Activity Against Glomerella lacenarium (Colletotrichum lacenarium) Liquid Culture/Cucumber/Preventative (Anthracnose)
Conidia of the fungus from cryogenic storage are directly mixed into nutrient broth (PDB—potato dextrose broth). After placing a (DMSO) solution of test compound into a microtiter plate (96-well format), the nutrient broth containing the fungal spores is added. The test plates are incubated at 24° C. and the inhibition of growth is measured photometrically 3 to 4 days after application.
The following compounds at 20 ppm in the applied formulation give at least 80% disease control in this test when compared to untreated control under the same conditions, which show extensive disease development.

Row | Compound | pest or weed control at 200 ppm [1] [%] | pest or weed control at 200 ppm [2] [%] | inhibition at 20 ppm [3] [%]
1 | CNC(=O)C(=O)N(C)Cc1ccc(-c2noc(C(F)(F)F)n2)cc1 [Compound 4.99, N,N′-dimethyl-N′-[[4-[5-(trifluoromethyl)-1,2,4-oxadiazol-3-yl]phenyl]methyl] oxamide] | ≥ 80 | ≥ 80 | ≥ 80
2 | CC(C)(CS(C)(=O)=O)NC(=O)C(=O)Nc1ccc(-c2noc(C(F)(F)F)n2)cc1 [Compound 4.17] | ≥ 80 | ≥ 80 | –
3 | CON(Cc1ccc(-c2noc(C(F)(F)F)n2)cc1)C(=O)C(=O)NCC(C)(C)C [Compound 4.62, N-(2,2-dimethylpropyl)-N′-methoxy-N′-[[4-[5-(trifluoromethyl)-1,2,4-oxadiazol-3-yl]phenyl]methyl] oxamide] | ≥ 80 | ≥ 80 | ≥ 80
4 | CON(Cc1ccc(-c2noc(C(F)(F)F)n2)cc1)C(=O)C(=O)NCC(C)C [Compound 4.67, N-isobutyl-N′-methoxy-N′-[[4-[5-(trifluoromethyl)-1,2,4-oxadiazol-3-yl]phenyl]methyl] oxamide] | ≥ 80 | ≥ 80 | ≥ 80
5 | CC(=O)C(=O)NCc1ccc(-c2noc(C(F)(F)F)n2)c(F)c1F [Compound 1.27, N-[[2,3-difluoro-4-[5-(trifluoromethyl)-1,2,4-oxadiazol-3-yl]phenyl]methyl]-2-oxo-propanamide] | ≥ 80 | ≥ 80 | ≥ 80
6 | CONC(=O)C(=O)N(C)Cc1ccc(-c2noc(C(F)(F)F)n2)cc1 [Compound 4.102, N-methoxy-N′-methyl-N′-[[4-[5-(trifluoromethyl)-1,2,4-oxadiazol-3-yl]phenyl]methyl] oxamide] | ≥ 80 | ≥ 80 | ≥ 80
7 | CCC(C)N(Cc1ccc(-c2noc(C(F)(F)F)n2)cc1)C(=O)C(N)=O (centres unmarked) [Compound 4.13, N′-sec-butyl-N′-[[4-[5-(trifluoromethyl)-1,2,4-oxadiazol-3-yl]phenyl]methyl] oxamide] | ≥ 80 | ≥ 80 | ≥ 80
8 | COCCN(Cc1ccc(-c2noc(C(F)(F)F)n2)cc1)C(=O)C(N)=O [Compound 4.12, N′-(2-methoxyethyl)-N′-[[4-[5-(trifluoromethyl)-1,2,4-oxadiazol-3-yl]phenyl]methyl] oxamide] | ≥ 80 | ≥ 80 | ≥ 80
9 | CN(C)C(=O)C(=O)N(Cc1ccc(-c2noc(C(F)(F)F)n2)cc1)Cc1ccco1 [Compound 4.23, N′-(2-furylmethyl)-N,N-dimethyl-N′-[[4-[5-(trifluoromethyl)-1,2,4-oxadiazol-3-yl]phenyl]methyl] oxamide] | ≥ 80 | ≥ 80 | ≥ 80
10 | CCC(C)NC(=O)C(=O)N(Cc1ccc(-c2noc(C(F)(F)F)n2)cc1)OC (centres unmarked) [Compound 4.61, N′-methoxy-N-sec-butyl-N′-[[4-[5-(trifluoromethyl)-1,2,4-oxadiazol-3-yl]phenyl]methyl] oxamide] | ≥ 80 | ≥ 80 | ≥ 80
11 | CCN(Cc1ccc(-c2noc(C(F)(F)F)n2)cc1)C(=O)C(=O)NOC [Compound 4.107, N'-ethyl-N-methoxy-N′-N′-[[4-[5-(trifluoromethyl)-1,2,4-oxadiazol-3-yl]phenyl]methyl] oxamide] | ≥ 80 | ≥ 80 | ≥ 80
12 | CN(C)C(=O)C(=O)Nc1ccc(-c2noc(C(F)(F)F)n2)cn1 [Compound 4.10, N′,N′-dimethyl-N-[5-[5-(trifluoromethyl)-1,2,4-oxadiazol-3-yl]-2-pyridyl] oxamide] | ≥ 80 | ≥ 80 | –
13 | CCON(C)C(=O)C(=O)NCc1ccc(-c2noc(C(F)(F)F)n2)cc1 [Compound 4.43, N′-ethoxy-N′-methyl-N-[[4-[5-(trifluoromethyl)-1,2,4-oxadiazol-3-yl]phenyl]methyl] oxamide] | ≥ 80 | – | ≥ 80
14 | CON(Cc1ccc(-c2noc(C(F)(F)F)n2)cc1)C(=O)C(=O)NCc1ccco1 [Compound 4.81, N-(2-furylmethyl)-N′-methoxy-N′-[[4-[5-(trifluoromethyl)-1,2,4-oxadiazol-3-yl]phenyl]methyl] oxamide] | ≥ 80 | – | ≥ 80
15 | CON(Cc1ccc(-c2noc(C(F)(F)F)n2)cc1)C(=O)C(=O)NCc1ccccc1 [Compound 4.71, N-benzyl-N′-methoxy-N'-[[4-[5-(trifluoromethyl)-1,2,4-oxadiazol-3-yl]phenyl]methyl] oxamide] | ≥ 80 | – | ≥ 80
16 | CCCON(Cc1ccc(-c2noc(C(F)(F)F)n2)cc1)C(=O)C(C)=O [Compound 1.8, 2-oxo-N-propoxy-N-[[4-[5-(trifluoromethyl)-1,2,4-oxadiazol-3-yl]phenyl]methyl]propanamide] | ≥ 80 | – | ≥ 80
17 | CON(Cc1ccc(-c2noc(C(F)(F)F)n2)cc1)C(=O)C(=O)O [Compound 3.7, 2-[methoxy-[[4-[5-(trifluoromethyl)-1,2,4-oxadiazol-3-yl]phenyl]methyl]amino]-2-oxo-acetic acid] | – | ≥ 80 | ≥ 80
18 | COCCN(Cc1ccccc1)C(=O)C(=O)Nc1ccc(-c2noc(C(F)(F)F)n2)cc1 [Compound 4.15] | ≥ 80 | – | ≥ 80
19 | NC(=O)C(=O)N(Cc1ccc(-c2noc(C(F)(F)F)n2)cc1)Cc1ccco1 [Compound 4.24, N′-(2-furylmethyl)-N′-[[4-[5-(trifluoromethyl)-1,2,4-oxadiazol-3-yl]phenyl]methyl] oxamide] | ≥ 80 | – | ≥ 80
20 | CCCC(=O)C(=O)N(Cc1ccc(-c2noc(C(F)(F)F)n2)cc1)CC1CCCO1 (centres unmarked) [Compound 1.13, 2-oxo-N-(tetrahydrofuran-2-ylmethyl)-N-[[4-[5-(trifluoromethyl)-1,2,4-oxadiazol-3-yl]phenyl]methyl]pentanamide] | ≥ 80 | – | ≥ 80
21 | O=C(NCc1ccc(-c2noc(C(F)(F)F)n2)cc1)C(=O)NCc1ccco1 [Compound 4.60, N′-(2-furylmethyl)-N-[[4-[5-(trifluoromethyl)-1,2,4-oxadiazol-3-yl]phenyl]methyl] oxamide] | ≥ 80 | – | ≥ 80
22 | CON(Cc1ccc(-c2noc(C(F)(F)F)n2)cc1)C(=O)C(=O)Nc1ccccc1 [Compound 4.70, N′-methoxy-N-phenyl-N′-[[4-[5-(trifluoromethyl)-1,2,4-oxadiazol-3-yl]phenyl]methyl] oxamide] | ≥ 80 | – | ≥ 80
23 | CON(Cc1ccc(-c2noc(C(F)(F)F)n2)cc1)C(=O)C(=O)NC1CCCC1 [Compound 4.79, N-cyclopentyl-N′-methoxy-N′-[[4-[5-(trifluoromethyl)-1,2,4-oxadiazol-3-yl]phenyl]methyl] oxamide] | ≥ 80 | – | ≥ 80
